Measurements reported in ChEMBL document CHEMBL1649403, “CYP1A2-mediated biotransformation of cardioactive 2-thienylidene-3,4-methylenedioxybenzoylhydrazine (LASSBio-294) by rat liver microsomes and human recombinant CYP enzymes” (Eur J Med Chem, 2011).
One block for each compound: values may come before it.

Columns and labels:
Liver microsomes [1] = test: Metabolic stability in rat liver microsomes in presence of CYP2C9 inhibitor sulfaphenazole; format: ADME, Microsome
Liver microsomes [2] = test: Metabolic stability in rat liver microsomes in presence of non-selective cytochrome P450 inhibitor ketoconazole; format: ADME, Microsome
Liver microsomes [3] = test: Metabolic stability in rat liver microsomes in presence of CYP1A2 inhibitor furafylline; format: ADME, Microsome
Cytochrome P450 2C9 = Cytochrome P450 2C9 (Homo sapiens, UniProt P11712); test: Activity of human recombinant CYP2C9 assessed as compound remaining; format: ADME; conditions: recombinant enzyme
Chain of Cytochrome P450 2C9 (P11712 whole entry): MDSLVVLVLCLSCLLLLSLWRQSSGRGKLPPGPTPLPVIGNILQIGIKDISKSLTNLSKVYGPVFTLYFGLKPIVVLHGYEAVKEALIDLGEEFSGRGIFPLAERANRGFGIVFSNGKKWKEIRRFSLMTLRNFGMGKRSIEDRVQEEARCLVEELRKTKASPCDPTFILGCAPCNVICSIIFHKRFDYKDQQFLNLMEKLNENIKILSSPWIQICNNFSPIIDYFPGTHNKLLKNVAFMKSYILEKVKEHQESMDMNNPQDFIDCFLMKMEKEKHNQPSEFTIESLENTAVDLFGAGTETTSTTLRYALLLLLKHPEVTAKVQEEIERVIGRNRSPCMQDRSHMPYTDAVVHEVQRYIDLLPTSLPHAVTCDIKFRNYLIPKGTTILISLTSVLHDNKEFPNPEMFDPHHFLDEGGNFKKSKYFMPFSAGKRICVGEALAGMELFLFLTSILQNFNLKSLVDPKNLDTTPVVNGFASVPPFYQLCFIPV

Cytochrome P450 3A4 = Cytochrome P450 3A4 (Homo sapiens, UniProt P08684); test: Activity of human recombinant CYP3A4 assessed as compound remaining; format: ADME; conditions: recombinant enzyme
Chain of Cytochrome P450 3A4 (P08684 whole entry): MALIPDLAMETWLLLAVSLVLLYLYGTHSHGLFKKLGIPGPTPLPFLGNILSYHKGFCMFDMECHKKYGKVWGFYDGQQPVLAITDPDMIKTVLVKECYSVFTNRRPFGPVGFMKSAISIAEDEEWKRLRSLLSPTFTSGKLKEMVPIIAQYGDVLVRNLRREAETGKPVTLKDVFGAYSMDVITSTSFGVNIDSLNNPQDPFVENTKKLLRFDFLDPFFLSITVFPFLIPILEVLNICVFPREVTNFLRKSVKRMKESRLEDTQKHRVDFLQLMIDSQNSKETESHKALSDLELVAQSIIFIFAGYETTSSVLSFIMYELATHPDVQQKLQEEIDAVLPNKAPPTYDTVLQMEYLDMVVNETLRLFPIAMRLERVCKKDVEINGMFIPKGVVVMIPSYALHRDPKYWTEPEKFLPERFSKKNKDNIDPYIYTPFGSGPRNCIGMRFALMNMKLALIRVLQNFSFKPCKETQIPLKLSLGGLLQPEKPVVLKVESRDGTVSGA

Cytochrome P450 3A5 = Cytochrome P450 3A5 (Homo sapiens, UniProt P20815); test: Activity of human recombinant CYP3A5 assessed as compound remaining; format: ADME; conditions: recombinant enzyme
Chain of Cytochrome P450 3A5 (P20815 whole entry): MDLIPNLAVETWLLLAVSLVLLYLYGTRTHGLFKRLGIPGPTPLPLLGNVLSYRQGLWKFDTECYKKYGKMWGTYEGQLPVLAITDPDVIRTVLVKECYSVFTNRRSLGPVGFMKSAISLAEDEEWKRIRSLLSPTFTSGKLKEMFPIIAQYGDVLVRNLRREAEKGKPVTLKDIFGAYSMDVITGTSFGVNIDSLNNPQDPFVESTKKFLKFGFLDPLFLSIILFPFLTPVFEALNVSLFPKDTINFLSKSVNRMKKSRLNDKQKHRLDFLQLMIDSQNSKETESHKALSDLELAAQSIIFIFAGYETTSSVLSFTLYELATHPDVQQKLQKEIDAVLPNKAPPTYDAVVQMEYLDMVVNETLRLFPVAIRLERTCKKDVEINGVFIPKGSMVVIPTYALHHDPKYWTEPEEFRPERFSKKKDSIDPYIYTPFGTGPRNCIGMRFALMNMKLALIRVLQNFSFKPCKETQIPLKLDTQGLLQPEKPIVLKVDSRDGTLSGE

Cytochrome P450 2C19 = Cytochrome P450 2C19 (Homo sapiens, UniProt P33261); test: Activity of human recombinant CYP2C19 assessed as compound remaining; format: ADME; conditions: recombinant enzyme
Chain of Cytochrome P450 2C19 (P33261 whole entry): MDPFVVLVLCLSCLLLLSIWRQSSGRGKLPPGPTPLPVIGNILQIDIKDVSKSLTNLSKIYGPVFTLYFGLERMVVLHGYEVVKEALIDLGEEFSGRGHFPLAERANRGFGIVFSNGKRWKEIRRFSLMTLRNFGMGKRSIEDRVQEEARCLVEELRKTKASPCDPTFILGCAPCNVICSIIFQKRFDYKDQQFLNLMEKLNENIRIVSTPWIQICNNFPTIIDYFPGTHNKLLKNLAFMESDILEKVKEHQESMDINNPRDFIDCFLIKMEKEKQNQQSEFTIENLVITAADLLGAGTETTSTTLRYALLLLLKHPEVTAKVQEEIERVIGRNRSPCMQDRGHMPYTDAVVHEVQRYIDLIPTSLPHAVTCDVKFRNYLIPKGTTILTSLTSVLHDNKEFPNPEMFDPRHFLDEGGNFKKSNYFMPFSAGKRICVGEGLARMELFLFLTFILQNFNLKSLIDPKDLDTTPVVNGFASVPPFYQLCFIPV

Cytochrome P450 2B6 = target: T1, Cytochrome P450 2B6 (Homo sapiens, UniProt P20813); test: Activity of human recombinant CYP2B6 assessed as compound remaining; format: ADME; conditions: recombinant enzyme
T1 sequence (P20813 whole entry): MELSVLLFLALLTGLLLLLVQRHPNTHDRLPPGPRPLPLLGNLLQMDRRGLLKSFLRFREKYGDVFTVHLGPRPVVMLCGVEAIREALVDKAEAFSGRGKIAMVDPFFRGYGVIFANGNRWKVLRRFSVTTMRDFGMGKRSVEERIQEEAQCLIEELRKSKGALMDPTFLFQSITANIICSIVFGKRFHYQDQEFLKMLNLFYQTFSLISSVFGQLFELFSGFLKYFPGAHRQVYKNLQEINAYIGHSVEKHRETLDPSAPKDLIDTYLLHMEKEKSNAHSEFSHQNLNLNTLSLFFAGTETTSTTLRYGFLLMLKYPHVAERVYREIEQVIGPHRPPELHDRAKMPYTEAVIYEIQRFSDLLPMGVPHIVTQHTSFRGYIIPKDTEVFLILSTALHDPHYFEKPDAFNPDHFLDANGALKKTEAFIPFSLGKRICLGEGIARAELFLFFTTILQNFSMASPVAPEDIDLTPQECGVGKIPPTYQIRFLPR

Cytochrome P450 2D6 = Cytochrome P450 2D6 (Homo sapiens, UniProt P10635); test: Activity of human recombinant CYP2D6 assessed as compound remaining; format: ADME; conditions: recombinant enzyme
Chain of Cytochrome P450 2D6 (P10635 whole entry): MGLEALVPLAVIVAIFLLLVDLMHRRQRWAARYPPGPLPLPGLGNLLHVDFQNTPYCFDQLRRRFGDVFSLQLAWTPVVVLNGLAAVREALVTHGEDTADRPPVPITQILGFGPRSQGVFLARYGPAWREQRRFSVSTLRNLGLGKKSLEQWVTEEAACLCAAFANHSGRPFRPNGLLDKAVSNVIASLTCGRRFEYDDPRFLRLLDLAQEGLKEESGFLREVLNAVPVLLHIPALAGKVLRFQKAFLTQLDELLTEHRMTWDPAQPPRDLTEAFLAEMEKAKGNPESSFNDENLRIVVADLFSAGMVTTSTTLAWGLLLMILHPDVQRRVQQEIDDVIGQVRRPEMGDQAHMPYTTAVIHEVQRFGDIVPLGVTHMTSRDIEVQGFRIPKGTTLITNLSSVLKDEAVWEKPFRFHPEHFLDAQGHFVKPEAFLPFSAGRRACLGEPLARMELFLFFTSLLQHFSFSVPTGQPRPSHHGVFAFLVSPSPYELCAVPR

Cytochrome P450 2C8 = target: T2, Cytochrome P450 2C8 (Homo sapiens, UniProt P10632); test: Activity of human recombinant CYP2C8 assessed as compound remaining; format: ADME; conditions: recombinant enzyme
T2 sequence (P10632 whole entry): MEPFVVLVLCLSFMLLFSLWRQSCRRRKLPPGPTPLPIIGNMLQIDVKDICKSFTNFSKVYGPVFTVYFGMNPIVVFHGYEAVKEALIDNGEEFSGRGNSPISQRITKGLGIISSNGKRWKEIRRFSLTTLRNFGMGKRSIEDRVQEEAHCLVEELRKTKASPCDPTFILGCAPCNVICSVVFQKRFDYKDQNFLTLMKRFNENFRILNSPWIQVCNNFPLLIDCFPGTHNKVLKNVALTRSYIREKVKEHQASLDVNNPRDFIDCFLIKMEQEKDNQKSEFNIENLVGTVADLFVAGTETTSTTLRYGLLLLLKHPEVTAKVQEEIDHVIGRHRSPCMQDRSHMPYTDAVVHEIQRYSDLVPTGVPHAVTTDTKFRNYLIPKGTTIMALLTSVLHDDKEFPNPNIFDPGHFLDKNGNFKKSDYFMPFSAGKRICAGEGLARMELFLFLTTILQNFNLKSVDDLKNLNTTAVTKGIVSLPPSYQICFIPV

Cytochrome P450 1A2 = target: T3, Cytochrome P450 1A2 (Homo sapiens, UniProt P05177); test: Activity of human recombinant CYP1A2 assessed as compound remaining; format: ADME; conditions: recombinant enzyme
T3 sequence (P05177 whole entry): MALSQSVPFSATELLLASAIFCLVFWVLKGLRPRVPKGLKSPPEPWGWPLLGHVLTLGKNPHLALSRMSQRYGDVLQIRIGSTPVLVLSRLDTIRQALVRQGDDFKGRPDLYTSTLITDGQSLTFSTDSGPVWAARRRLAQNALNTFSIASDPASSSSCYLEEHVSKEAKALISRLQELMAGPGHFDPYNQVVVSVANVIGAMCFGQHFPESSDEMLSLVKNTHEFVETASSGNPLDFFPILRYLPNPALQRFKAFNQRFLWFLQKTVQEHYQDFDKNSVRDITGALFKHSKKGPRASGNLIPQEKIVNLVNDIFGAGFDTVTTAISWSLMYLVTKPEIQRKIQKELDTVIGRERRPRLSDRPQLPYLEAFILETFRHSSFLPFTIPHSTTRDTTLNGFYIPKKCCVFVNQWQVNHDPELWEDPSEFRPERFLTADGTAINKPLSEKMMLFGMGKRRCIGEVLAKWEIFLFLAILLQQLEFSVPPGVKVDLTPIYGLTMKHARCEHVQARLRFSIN

Liver microsomes [4] = test: Metabolic stability in rat liver microsomes in presence of CYP2D6 inhibitor quinidine; format: ADME, Microsome

Compound: CC(=O)N1CCN(c2ccc(OCC3COC(Cn4ccnc4)(c4ccc(Cl)cc4Cl)O3)cc2)CC1 (configuration not stated) [KETOCONAZOLE]
Stability (Liver microsomes [2]): 0.31 µM

Compound: Cc1nc2c([nH]1)c(=O)n(C)c(=O)n2Cc1ccco1 [FURAFYLLINE]
Stability (Liver microsomes [3]): 0.12 µM

Continued, values first:

Stability (Liver microsomes [1]): 0.85 µM
Compound: Nc1ccc(S(=O)(=O)Nc2ccnn2-c2ccccc2)cc1 [SULFAPHENAZOLE]

Activity (Cytochrome P450 2C9): 81%
Activity (Cytochrome P450 3A4): 92%
Activity (Cytochrome P450 3A5): 100%
Activity (Cytochrome P450 2C19): 96%
Activity (Cytochrome P450 2B6): 98%
Activity (Cytochrome P450 2D6): 95%
Activity (Cytochrome P450 2C8): 99%
Activity (Cytochrome P450 1A2): 67%
Compound: O=C(N/N=C/c1cccs1)c1ccc2c(c1)OCO2

Stability (Liver microsomes [4]): 0.91 µM
Compound: C=C[C@H]1C[N@@]2CC[C@H]1C[C@@H]2[C@@H](O)c1ccnc2ccc(OC)cc12 [QUINIDINE]
